Measurements published in US20260159536A1, “AKR1C3-ACTIVATED DNA ALKYLATING AGENT, AND MEDICAL APPLICATION THEREOF” (ASCENTAWITS PHARMACEUTICALS, LTD., priority 2021, published 2026).

Tests used:
[1] = test system: HuPrime model LI6643 human liver cancer; assay: In vivo pharmacodynamics, liver cancer LI6643 PDX model (Compound A, Sorafenib; section 4.8); parameters: species or system BALB/c nude mice; conditions: for Tumor volume: 10 mg/kg i.v.
Experimental: Experiment Instruction: BALB/c nude mice were subcutaneously inoculated with HuPrime® model LI6643 tumor blocks to establish a subcutaneous transplantation tumor model of human liver cancer. […] The efficacy was evaluated according to the relative tumor inhibition rate TGI (%), and the safety was evaluated according to the change in body weight and the death of the animals.

[2] = test system: SNU886; assay: Cytotoxicity on hepatocellular carcinoma cell line SNU886; assay type: cell-based
Experimental: If not otherwise specified, IC50 values were measured by the following experimental methods:
a) Cells were plated for 24 hours, and then the compounds acted singly. 99 μL of growth medium was supplemented per well, and then 1 μL of 200× compound was added, gently shaken to ensure uniform mixing, and then placed in a 37° C., 5% CO2 incubator.
b) The cell plate was placed in the incubator for 72 hours.
b) 100 μL of CTG reagent (CelltiterGlo kit) was added to each well, the plate was placed in a rapid oscillator and shaken for 2 minutes, and then placed at room temperature for 30 minutes away from light.
The IC50 was calculated using GraphPad Prism 8 software and the IC50 (half inhibitory concentration) of the compounds was obtained using the following non-linear fitting formula: […]
Using the same experimental methods as described above, Compounds A, B and C were further tested for cytotoxicity against different hepatocellular carcinoma (HCC) cell lines SNU354, SNU886, MHCC97H and huH-1, and the results were shown in Table 2 below: […]

[3] = test system: HuPrime model LU2505 human lung cancer; assay: In vivo pharmacodynamics, lung cancer LU2505 PDX model; parameters: species or system BALB/c nude mice; conditions: for Tumor volume (x ± S): in mm³ (unit assumed)
[4] = 5 mg/kg, QDx5, 2 days off, 2 weeks off, QDx5, i.p., Day 35
[5] = 10 mg/kg, QWx2, 1 week off, QWx2, i.v., Day 35

## O=[N+]([O-])c1ccc(C(OP(=O)(N2CC2)N2CC2)C(F)(F)F)cc1Oc1ccc(-c2ccc(F)cc2)c(F)c1 (racemic) [Compound A]
[1]; [4]
  Relative tumor volume (x ± S): 0.05 ± 0.05
  T/C (%): 0.34%
  TGI (%): 99.66%
  Tumor volume (x ± S): 7.12 ± 7.12
[1]; Day 0
  Tumor volume: 126.11 mm^3
[1]; Day 4
  Tumor volume: 160.85 mm^3
[1]; Day 7
  Tumor volume: 216.99 mm^3
[1]; Day 11
  Tumor volume: 94.21 mm^3
[1]; Day 14
  Tumor volume: 72.94 mm^3
[1]; Day 18
  Tumor volume: 59.48 mm^3
[1]; Day 21
  Tumor volume: 25.80 mm^3
[1]; Day 25
  Tumor volume: 21.28 mm^3
[1]; Day 28
  Tumor volume: 10.93 mm^3
[1]; Day 32
  Tumor volume: 7.11 mm^3
[1]; Day 35
  Tumor volume: 0.00 mm^3
[1]; Day 39
  Tumor volume: 0.00 mm^3
[1]; Day 42
  Tumor volume: 0.00 mm^3
[1]; Day 46
  Tumor volume: 0.00 mm^3
[1]; Day 49
  Tumor volume: 0.00 mm^3
[1]; Day 53
  Tumor volume: 0.00 mm^3
[1]; [5]
  Relative tumor volume (x ± S): 0 ± 0
  T/C (%): 0.00%
  TGI (%): 100.00%
  Tumor volume (x ± S): 0 ± 0
[1]; 1.25, 2.5, 5, 10 mg/kg
  toxic side effects (body weight change): without toxic side effects
[2]; IC50 ratio
  ratio A/B: 1.66
  ratio A/C: 0.75
[2]; SNU-886
  IC50: 628 nM
[3]; 1.25 mg/kg i.v. QWx3, Day 28
  Relative tumor volume (x ± S): 4.61 ± 1.57
  T/C (%): 43.14%
  TGI (%): 56.86%
  Tumor volume (x ± S): 485.95 ± 175.25
[3]; 1.25 mg/kg i.v., Day 0
  Tumor volume: 103.28 mm^3
[3]; 1.25 mg/kg i.v., Day 4
  Tumor volume: 156.32 mm^3
[3]; 1.25 mg/kg i.v., Day 7
  Tumor volume: 231.55 mm^3
[3]; 1.25 mg/kg i.v., Day 11
  Tumor volume: 242.12 mm^3
[3]; 1.25 mg/kg i.v., Day 14
  Tumor volume: 291.72 mm^3
[3]; 1.25 mg/kg i.v., Day 18
  Tumor volume: 383.24 mm^3
[3]; 1.25 mg/kg i.v., Day 21
  Tumor volume: 434.92 mm^3
[3]; 1.25 mg/kg i.v., Day 25
  Tumor volume: 478.15 mm^3
[3]; 1.25 mg/kg i.v., Day 28
  Tumor volume: 485.95 mm^3
[3]; 2.5 mg/kg i.v. QWx3, Day 28
  Relative tumor volume (x ± S): 1.11 ± 0.56
  T/C (%): 10.43%
  TGI (%): 89.57%
  Tumor volume (x ± S): 102.06 ± 47.51
[3]; 2.5 mg/kg i.v., Day 0
  Tumor volume: 103.26 mm^3
[3]; 2.5 mg/kg i.v., Day 4
  Tumor volume: 149.02 mm^3
[3]; 2.5 mg/kg i.v., Day 7
  Tumor volume: 131.34 mm^3
[3]; 2.5 mg/kg i.v., Day 11
  Tumor volume: 109.62 mm^3
[3]; 2.5 mg/kg i.v., Day 14
  Tumor volume: 116.57 mm^3
[3]; 2.5 mg/kg i.v., Day 18
  Tumor volume: 113.09 mm^3
[3]; 2.5 mg/kg i.v., Day 21
  Tumor volume: 103.18 mm^3
[3]; 2.5 mg/kg i.v., Day 25
  Tumor volume: 92.38 mm^3
[3]; 2.5 mg/kg i.v., Day 28
  Tumor volume: 102.06 mm^3
[3]; 5 mg/kg i.v. QWx3, Day 28
  Relative tumor volume (x ± S): 0.17 ± 0.07
  T/C (%): 1.60%
  TGI (%): 98.40%
  Tumor volume (x ± S): 19.00 ± 8.08
[3]; 5 mg/kg i.v., Day 0
  Tumor volume: 103.23 mm^3
[3]; 5 mg/kg i.v., Day 4
  Tumor volume: 139.41 mm^3
[3]; 5 mg/kg i.v., Day 7
  Tumor volume: 111.31 mm^3
[3]; 5 mg/kg i.v., Day 11
  Tumor volume: 62.41 mm^3
[3]; 5 mg/kg i.v., Day 14
  Tumor volume: 42.40 mm^3
[3]; 5 mg/kg i.v., Day 18
  Tumor volume: 34.32 mm^3
[3]; 5 mg/kg i.v., Day 21
  Tumor volume: 30.63 mm^3
[3]; 5 mg/kg i.v., Day 25
  Tumor volume: 20.52 mm^3
[3]; 5 mg/kg i.v., Day 28
  Tumor volume: 19.00 mm^3
[3]; 1.25, 2.5, 5 mg/kg i.v. QWx3
  toxic side effects (body weight change): without toxic side effects
